PMC10498496, “Design and Synthesis of Poly(2,2′-Bipyridyl) Ligands for Induction of Cell Death in Cancer Cells: Control of Anticancer Activity by Complexation/Decomplexation with Biorelevant Metal Cations” (Inorganic Chemistry, 2023)
Where two headings read alike, the source gives them in different places. One block for each compound: values may come before it. Numbered stars: 1 amine (or outer) side, 2 acyl side, 3 side chain; on linkers, the order of the positions; unused ones are H or OH. Bridge positions count the residues as written; N and C are the ends. Square brackets hold non-standard residues; d marks the D form. Peptide text beside a SMILES is read from it. I, II: the chains in the order shown. Actinocin(9to1) = Cc1c2oc3c(C)ccc(C(=O)[*:1])c3nc-2c(C(=O)[*:2])c(N)c1=O; NMeV = CN[C@H](C(=O)O)C(C)C; Sar = CNCC(=O)O

Assays:
HeLa S3 cells = assay: MTT assay, cytotoxicity against HeLa S3 cells; format: cell-based, human; settings: Homo sapiens
Experimental: Second, we conducted the quantitative evaluation of the cytotoxicity of 1, 2, and 3 against various cancer cell lines by an MTT (3-(4,5-dimethylthiazol-2-yl)-2,5-diphenyltetrazolium bromide) assay. Jurkat, MOLT-4 (these two cell lines are human T-lymphocyte leukemia cells), and U937 (human lymphoma) cells (1.5 × 10^4 cells/well) were incubated in RPMI 1640 medium containing 10% FBS (fetal bovine serum) containing 1, 2, and 3 (0–25 μM) at 37 °C for 24 h, and then treated with the MTT reagent. […]
(§1) HeLa S3 cells and A549 cells in MEM and DMEM medium with 10% FBS (1.5 × 10^5 cells/mL per one well) were seeded in to 96 well plates and incubated for 24 h, MTT assay of poly(bpy) ligands (0–25 μM), cisplatin (0–100 μM), and actinomycin D (0–10 μM) was performed according to the same procedure described above.

A549 cells = assay: MTT assay, cytotoxicity against A549 cells; format: cell-based, human; settings: Homo sapiens, A549, 37 °C, treated for 24 h
Experimental: (§2) Second, we conducted the quantitative evaluation of the cytotoxicity of 1, 2, and 3 against various cancer cell lines by an MTT (3-(4,5-dimethylthiazol-2-yl)-2,5-diphenyltetrazolium bromide) assay. Jurkat, MOLT-4 (these two cell lines are human T-lymphocyte leukemia cells), and U937 (human lymphoma) cells (1.5 × 10^4 cells/well) were incubated in RPMI 1640 medium containing 10% FBS (fetal bovine serum) containing 1, 2, and 3 (0–25 μM) at 37 °C for 24 h, and then treated with the MTT reagent. A549 (human alveolar adenocarcinoma) and IMR-90 (normal human fetal lung fibroblast as model of normal cells) cells (1.5 × 10^4 cells/well) were incubated in DMEM (low glucose) with 10% FBS containing 1, 2, and 3 (0–25 μM), HeLa S3 (human epithelial carcinoma cells) cells (1.5 × 10^4 cells/well) were incubated in MEM with 10% FBS containing these ligands (0–25 μM) for 24 h at 37 °C and then treated with the MTT reagent.
as §1

MOLT-4 cells [1] = assay: MTT assay, cytotoxicity against MOLT-4 cells; format: cell-based, human; settings: Homo sapiens, read-out: EC50 against MOLT-4
Experimental: as §2
(§3) • (a) Cytotoxic study. Jurkat cells, MOLT-4 cells, and U937 cells (1.5 × 10^5 cells/mL per one well) were incubated in 10% FBS RPMI 1640 medium containing 1 (0–25 μM), 2 (0–25 μM) , 3, cisplatin (0–100 μM), and actinomycin D (0–10 μM) under 5% CO2 at 37 °C for 24 h on 96 well plates (Watson), 0.5% MTT (3-(4,5-dimethyl-2-thiazolyl)-2,5-diphenyl-2H-tetrazolium bromide) reagent in PBS (10 μL) was then added to the cells. After incubation at 37 °C for 4 h, a formazan lysis solution (10% SDS in 0.01 N HCl) (100 μL) was added and the resulting solution was incubated overnight under the same conditions, followed by the measurement of absorbance at 570 nm with a microplate reader (BIO-RAD).

IMR-90 cells = assay: MTT assay, cytotoxicity against IMR-90 cells (model of normal cells); format: cell-based, human; settings: Homo sapiens, read-out: EC50 against IMR-90
Experimental: as §2
(§4) IMR-90 cells in DMEM medium with 10% FBS (1.5 × 10^5 cells/mL) were seeded in to 96 well plates and incubated for 24 h at 37 °C, MTT assays with poly(bpy) ligands and their metal complexes (0–100 μM), cisplatin (0–100 μM), and actinomycin D (0–10 μM) were performed following the same procedure described above. These experiments were carried out at least three times. • (b) MTT assay in the presence of a caspase inhibitor. Jurkat cells were pre-treated with Z-VAD-fmk (15 μM) for 3 h, a general caspases inhibitor, followed by the treatment with 1 (1 μM), BABTA-AM (12.5 μM) and cisplatin (50 μM), respectively, for 24 h, and then MTT assay was carried out as described above. • (c) For evaluation of the effect of metal ions on the cytotoxicity of 1, 2, BAPTA, and BAPTA-AM, these ligands were incubated with metal ions such as Cu(NO3)2, Zn(NO3)2, FeSO4, Co(NO3)2, and NiSO4 for 1 h, respectively, and added to Jurkat cells. The whole mixtures were incubated for 12, 24, and 48 h at [ligand] = 0.78–25 μM and at [M^2+] = 1.71–37.5 μM ([ligand]/[M^2+] = 1:1.5). The MTT assays were conducted as described above.

Jurkat cells [2] = assay: MTT assay, cytotoxicity against Jurkat cells; format: cell-based, human; settings: Homo sapiens, Jurkat
Experimental: as §2, §3

U937 cells = assay: MTT assay, cytotoxicity against U937 cells; format: cell-based, human; settings: Homo sapiens, read-out: EC50 against U937
Experimental: as §2, §3

MOLT-4 cells [3] = test system: MOLT-4 cells; parameters: method as in earlier work; settings: ref 52 (Morita et al., Oncotarget 2013); read-out: EC50, cytotoxicity against MOLT-4 cells; cited from earlier work
Jurkat cells [4] = assay: MTT assay of Jurkat cells, effect of metal ions and incubation time on cytotoxicity of ligands; format: cell-based, human
Experimental: Next, we examined the effect of complexation of 1, 2, BAPTA, and BAPTA-AM with metal ions such as Cu(NO3)2, Zn(NO3)2, FeSO4, Co(NO3)2, and NiSO4 on their cytotoxicity against Jurkat cells. Mixture of ligands and metal ions were incubated for 1 h at 37 °C, and added to Jurkat cells for incubation for 12, 24, and 48 h at [ligand] = 0.78–25 μM and [M^2+] = 1.71–37.5 μM ([ligand]: [M^2+] = 1:1.5). After that, MTT assays were carried out, as shown in Figure S3 of the Supporting Information.
as §4

Jurkat cells [5] = assay: MTT assay in the presence of the caspase inhibitor Z-VAD-fmk; format: cell-based, human; settings: Z-VAD-fmk 15 μM 3 h, then compound 12.5 μM for 24 h
Text: We, therefore, selected Jurkat cells to study the cell death mechanism in detail, in this work. Programmed cell death (PCD) is generally classified into several types such as apoptosis, necroptosis, paraptosis, autophagic cell death, and so on.[30]−[33] We hypothesized that 1 and 2 function as inducers of apoptosis, which is a type of PCD in cancer cells, based on the morphological change of Jurkat cells observed in Figure 1 and mechanism of chelation therapy proposed in the previous studies.[11]−[19] It is known that the caspases family are cysteine proteases that play important roles in apoptosis and necroptosis.[38] Therefore, the effect of Z-VAD-fmk, which is known as one of general caspase inhibitors, on the cell death induced by 1 and cisplatin was examined.
Figure 3 Effect of Z-VAD-fmk on the cell death in Jurkat cells induced by 1. Jurkat cells were incubated in RPMI in the presence of Z-VAD-fmk (15 μM) for 3 h and then treated with (a) 1 (1 μM) and (b) cisplatin (50 μM) for 24 h. Asterisks indicate significant difference with *(P ≤ 0.05).
To investigate the mechanism responsible for the BAPTA-AM-induced cell death in Jurkat cells, Jurkat cells were incubated with Z-VAD-fmk (15 μM) for 3 h, and then cells were treated with BAPTA-AM (12.5 μM) for 24 h followed by an MTT assay.
IMR-90 cells in DMEM medium with 10% FBS (1.5 × 10^5 cells/mL) were seeded in to 96 well plates and incubated for 24 h at 37 °C, MTT assays with poly(bpy) ligands and their metal complexes (0–100 μM), cisplatin (0–100 μM), and actinomycin D (0–10 μM) were performed following the same procedure described above. These experiments were carried out at least three times. • (b) MTT assay in the presence of a caspase inhibitor. […]

[6] = HeLa S3, MTT, 37 °C, treated for 24 h, read-out: EC50 against HeLa S3 (converted)
[7] = MOLT-4, MTT, 37 °C, treated for 24 h
[8] = IMR-90, MTT, 37 °C, treated for 24 h
[9] = MTT, 37 °C, treated for 24 h, read-out: EC50 against Jurkat (converted)
[10] = U-937, MTT, 37 °C, treated for 24 h
[11] = Homo sapiens, Jurkat, no metal, incubation 48 h (Figure 9, S4), read-out: EC50 against Jurkat cells, metal-free ligand

- melting point: 85 to 87 °C
Structure (SMILES): c1ccc(COc2ccc(-c3ccccn3)nc2)cc1 [compound 3, 5-(Benzyloxy)-2,2′-bipyridine]
- EC50 (HeLa S3 cells; [6]): 15 ± 0.37 µM
- EC50 (A549 cells): 11 ± 0.55 µM
- EC50 (MOLT-4 cells [1]; [7]): 8.7 ± 0.89 µM
- EC50 (IMR-90 cells; [8]): 75 ± 0.1 µM
- EC50 (Jurkat cells [2]; [9]): 13 ± 0.34 µM
- EC50 (U937 cells; [10]): 5.6 ± 0.77 µM

Structure (SMILES): c1ccc(CN(CCN(Cc2ccccn2)Cc2ccccn2)Cc2ccccn2)nc1 [TPEN, N,N,N′,N′-tetra(2-pyrydylmethyl)ethylene diamine]
- EC50 (MOLT-4 cells [3]): ~8 µM

Structure (SMILES): O=[N+]([O-])[O-].O=[N+]([O-])[O-].[Co+2] [Co^2+, Co(NO3)2]
- EC50 (Jurkat cells [4]; no ligand, incubation 48 h (Figure 9a), read-out: EC50 of ligand-free metal ion against Jurkat cells): 13 µM

Structure (SMILES): CC(=O)OCOC(=O)CN(CC(=O)OCOC(C)=O)c1ccccc1OCCOc1ccccc1N(CC(=O)OCOC(C)=O)CC(=O)OCOC(C)=O [BAPTA-AM, reference compound]
- EC50 (HeLa S3 cells; [6]): > 50 µM
- EC50 (A549 cells): > 50 µM
- EC50 (MOLT-4 cells [1]; [7]): 13.2 ± 0.2 µM
- EC50 (Jurkat cells [4]; Homo sapiens, Jurkat, no metal, incubation 24 h (Figure S4), read-out: EC50 against Jurkat cells, ligand alone): 8.6 µM
- EC50 (Jurkat cells [4]; [11]): 7.9 µM
- cell viability of Jurkat cells after preincubation with Z-VAD-fmk (Jurkat cells [5]): considerably restored
- EC50 (IMR-90 cells; [8]): > 50 µM
- EC50 (Jurkat cells [2]; [9]): 8.6 ± 0.3 µM
- EC50 (U937 cells; [10]): 7.1 ± 0.4 µM

- melting point: 135 to 136 °C
Structure (SMILES): c1ccc(-c2ccc(OCc3cccc(COc4ccc(-c5ccccn5)nc4)c3)cn2)nc1 [compound 2, 1,3-Bis(([2,2′-Bipyridin]-5-yloxy)methyl)benzene]
- EC50 (HeLa S3 cells; [6]): 15 ± 1.34 µM
- EC50 (A549 cells): 9.5 ± 1.2 µM
- EC50 (MOLT-4 cells [1]; [7]): 0.64 ± 0.55 µM
- EC50 (Jurkat cells [4]; Homo sapiens, Jurkat, no metal, incubation 12 h (Figure 9), read-out: EC50 against Jurkat cells, metal-free ligand): ~2 µM
- EC50 (Jurkat cells [4]; [11]): ~0.1 µM
- EC50 (IMR-90 cells; [8]): > 100 µM
- EC50 (Jurkat cells [2]; [9]): 0.77 ± 0.56 µM
- EC50 (U937 cells; [10]): 0.59 ± 0.33 µM

Structure (SMILES): Cc1c2oc3c(C)ccc(C(=O)N[C@@H]4C(=O)N[C@H](C(C)C)C(=O)N5CCC[C@H]5C(=O)N(C)CC(=O)N(C)[C@@H](C(C)C)C(=O)O[C@@H]4C)c3nc-2c(C(=O)N[C@@H]2C(=O)N[C@H](C(C)C)C(=O)N3CCC[C@H]3C(=O)N(C)CC(=O)N(C)[C@@H](C(C)C)C(=O)O[C@@H]2C)c(N)c1=O [actinomycin D, reference compound] (I: T[dV]P[Sar][NMeV] / II: T[dV]P[Sar][NMeV]; ester I:1-I:C, II:1-II:C; linker I:N-II:N via Actinocin(9to1))
- EC50 (HeLa S3 cells; HeLa S3, 24 h, read-out: EC50 against HeLa S3): > 10 µM
- EC50 (MOLT-4 cells [1]; MOLT-4, 24 h): 0.003 µM
- EC50 (IMR-90 cells; IMR-90, 24 h): 53 ± 2.6 µM
- EC50 (Jurkat cells [2]; 24 h, read-out: EC50 against Jurkat): 0.005 µM
- EC50 (U937 cells; U-937, 24 h): 0.051 µM
